Results: patent US20080194616A1, “PYRIDOPYRIMIDINONE COMPOUNDS USEFUL IN TREATING SODIUM CHANNEL-MEDIATED DISEASES OR CONDITIONS” (Xenon Pharmaceuticals Inc., priority 2007, published 2008)
Counter-ions that a name gives are not always drawn.

tested on: sodium channel; test: Guanidine Influx Assay (In Vitro Assay); format: cell-based, human or rat; conditions: known cell line that expresses a sodium channel; read-out: IC50 Activity Level
From the text: This example describes an in vitro assay for testing and profiling test agents against human or rat sodium channels stably expressed in cells of either an endogenous or recombinant origin. The assay is also useful for determining the IC-50 of a sodium channel blocking compound. The assay is based on the guanidine flux assay described by Reddy, N. L., et al., J. Med. Chem. (1998), 41(17):3298-302.
The guanidine influx assay is a radiotracer flux assay used to determine ion flux activity of sodium channels in a high-throughput microplate-based format. The assay uses ^14C-guanidine hydrochloride in combination with various known sodium channel modulators, to assay the potency of test agents. Potency is determined by an IC-50 calculation. Selectivity is determined by comparing potency of the compound for the channel of interest to its potency against other sodium channels (also called ‘selectivity profiling’).
Each of the test agents is assayed against cells that express the channels of interest. Voltage gated sodium channels are either TTX sensitive or insensitive. This property is useful when evaluating the activities of a channel of interest when it resides in a mixed population with other sodium channels. The following Table 1 summarizes cell lines useful in screening for a certain channel activity in the presence or absence of TTX.
Cells expressing the channel of interest are grown according to the supplier or in the case of a recombinant cell in the presence of selective growth media such as G418 (Gibco/Invitrogen). The cells are disassociated from the culture dishes with an enzymatic solution (1×) Trypsin/EDTA (Gibco/Invitrogen) and analyzed for density and viability using haemocytometer (Neubauer). Disassociated cells are washed and resuspended in their culture media then plated into Scintiplates (Beckman Coulter Inc.) (approximately 100,000 cells/well) and incubated at 37° C./5% CO2. for 20-24 hours. After an extensive wash with Low sodium HEPES-buffered saline solution (LNHBSS) (150 mM Choline Chloride, […] (Sigma), 1 mM Calcium Chloride, 5 mM Potassium Chloride, 1 mM Magnesium Chloride, 10 mM Glucose) agents diluted with LNHBSS are added to each well. (Varying concentrations of test agent may be used). The activation/radiolabel mixture contains aconitine (Sigma), and ^14C-guanidine hydrochloride (ARC).
After loading the cells with test agent and activation/radiolabel mixture, the Scintiplates are incubated at ambient temperature. Following the incubation, the Scintplates are extensively washed with LNHBSS supplemented with guanidine (Sigma). The Scintiplates are dried and then counted using a Wallac MicroBeta TriLux (Perkin-Elmer Life Sciences). The ability of the test agent to block sodium channel activity is determined by comparing the amount of ^14C-guanidine present inside the cells expressing the different sodium channels.
IC-50 value of a test agent for a specific sodium channel may be determined using the above general method. IC-50 may be determined using a 3,8,10,12 or 16 point curve in duplicate or triplicate with a starting concentration of 1, 5 or 10 μM diluted serially with a final concentration reaching the sub-nanomolar, nanomolar and low micromolar ranges. Typically the mid-point concentration of test agent is set at 1 μM, and sequential concentrations of half dilutions greater or smaller are applied (e.g. 0.5 μM; […] and 0.25 μM; 10 μM and 0.125 μM; 20 μM etc.). The IC-50 curve is calculated using the 4 Parameter Logistic Model or Sigmoidal Dose-Response Model formula (fit=(A+((B−A)/(1+((C/x)̂D)))).

| Compound | IC50 [µM] |
| --- | --- |
| CCCCc1nc2ccccn2c(=O)c1-c1ccc(N[C@H]2CCNC2)cc1 [Example 7.1, (S)-2-butyl-3-{4-[pyrrolidin-3-ylamino]phenyl}-4H-pyrido[1,2-a]pyrimidin-4-one hydrochloride] | ≥ 10 |
| CCCCc1nc2ccccn2c(=O)c1-c1ccc(N[C@@H]2CCNC2)c(F)c1 [Example 7.2, (R)-2-butyl-3-{3-fluoro-4-[(pyrrolidin-3-ylamino]phenyl}-4H-pyrido[1,2-a]pyrimidin-4-one hydrochloride] | ≥ 10 |
| CCCCc1nc2ccccn2c(=O)c1-c1ccc(N[C@@H]2CCNC2)cc1C [Example 7.3, (R)-2-butyl-3-{2-methyl-4-[pyrrolidin-3-ylamino]phenyl}-4H-pyrido[1,2-a]pyrimidin-4-one hydrochloride] | ≥ 10 |
| CCCCc1nc2ccccn2c(=O)c1-c1cccc(NC2CCNC2)c1 (stereo not drawn) [Example 7.4, 2-butyl-3-[3-(pyrrolidin-3-ylamino)phenyl]-4H-pyrido[1,2-a]pyrimidin-4-one hydrochloride] | ≥ 10 |
| CC(C)c1nc2ccccn2c(=O)c1-c1ccc(NC2CCNC2)cc1 (stereo not drawn) [Example 7.5, 2-(1-methylethyl)-3-[4-(pyrrolidin-3-ylamino)phenyl]-4H-pyrido[1,2-a]pyrimidin-4-one hydrochloride] | ≥ 10 |
| CC(C)CCc1nc2ccccn2c(=O)c1-c1ccc(N[C@@H]2CCNC2)cc1 [Example 7.6, (R)-2-isopentyl-3-(4-(pyrrolidin-3-ylamino)phenyl)-4H-pyrido[1,2-a]pyrimidin-4-one hydrochloride] | ≥ 10 |
| O=c1c(-c2ccc(N[C@@H]3CCNC3)cc2)c(CCC2CC2)nc2ccccn12 [Example 7.7, (R)-2-(2-cyclopropylethyl)-3-(4-(pyrrolidin-3-ylamino)phenyl)-4H-pyrido[1,2-a]pyrimidin-4-one hydrochloride] | 0.1 to 1 |
| CCCNc1nc2ccccn2c(=O)c1-c1ccc(NC2CCNC2)cc1 (stereo not drawn) [Example 7.8, 2-(propylamino)-3-[4-(pyrrolidin-3-ylamino)phenyl]-4H-pyrido[1,2-a]pyrimidin-4-one hydrochloride] | ≥ 10 |
| CC(C)Nc1nc2ccccn2c(=O)c1-c1ccc(NC2CCNC2)cc1 (stereo not drawn) [Example 7.9, 2-[(1-methylethyl)amino]-3-[4-(pyrrolidin-3-ylamino)phenyl]-4H-pyrido[1,2-a]pyrimidin-4-one hydrochloride] | ≥ 10 |
| CC(C)Nc1nc2ccccn2c(=O)c1-c1ccc(N[C@@H]2CCNC2)cc1 [Example 7.10, (R)-2-[(1-methylethyl)amino]-3-{4-[pyrrolidin-3-ylamino]phenyl}-4H-pyrido[1,2-a]pyrimidin-4-one hydrochloride] | ≥ 10 |
| O=c1c(-c2ccc(N[C@@H]3CCNC3)cc2)c(N2CCCC2)nc2ccccn12 [Example 7.11, (R)-2-pyrrolidin-1-yl-3-{4-[pyrrolidin-3-ylamino]phenyl}-4H-pyrido[1,2-a]pyrimidin-4-one hydrogen chloride] | ≥ 10 |
| CCCCc1nc2ccccn2c(=O)c1-c1ccc2c(c1)CCN2C1CCNC1 (stereo not drawn) [Example 7.12, 2-butyl-3-(1-(pyrrolidin-3-yl)indolin-5-yl)-4H-pyrido[1,2-a]pyrimidin-4-one hydrochloride] | ≥ 10 |
| CCCCc1nc2ccccn2c(=O)c1-c1ccc(N2CCNCC2)nc1 [Example 7.13, 2-butyl-3-(6-piperazin-1-ylpyridin-3-yl)-4H-pyrido[1,2-a]pyrimidin-4-one hydrochloride] | ≥ 10 |
| COc1nc2ccccn2c(=O)c1-c1ccc(NC2CCNC2)cc1 (stereo not drawn) [Example 9, 2-methoxy-3-[4-(pyrrolidin-3-ylamino)phenyl]-4H-pyrido[1,2-a]pyrimidin-4-one trifluoroacetate] | ≥ 10 |
| CCCOc1nc2ccccn2c(=O)c1-c1ccc(N[C@@H]2CCNC2)cc1 [Example 9.1, (R)-2-propoxy-3-(4-(pyrrolidin-3-ylamino)phenyl)-4H-pyrido[1,2-a]pyrimidin-4-one trifluoroacetate] | ≥ 10 |
